Like-named read-outs stand apart in the source and are kept apart here.
What was measured:
[1] = system: pancreatic carcinoma Panc-1 cells; assay: MTT cytotoxicity against Panc-1 cells; type: cell-based; conditions: for SI: selectivity index in comparison with SH-SY5Y cells, Panc-1: Panc-1 vs SH-SY5Y
Description: (§1) The anticancer effects of captured hits were evaluated against SH-SY5Y (Neuroblastoma, CRL-2266), Panc-1 (pancreatic carcinoma, CRL-1469) and U-87 MG (glioblastoma, HTB-14) cells. Details about growth conditions, cell harvesting and counting are available in ESI Sections SM12–SM14. ^† The cancer killing profiles of tested compounds were evaluated colorimetrically using the Cell Titer Non-Radioactive Cell Proliferation Assay Kit® (Promega, USA) based on the reduction of a yellow tetrazole, 3-(4,5-Dimethylthiazol-2-yl)-2, 5-diphenyl tetrazolium bromide (MTT), to a purple formazan, a process that takes place in the mitochondria of viable cells (details are in ESI Sections SM12–SM14 ^†).[98,99]
(§2) Panc-1 and U-87 MG cells were used to probe LSD-1 inhibition by candidate inhibitors.[119,120] However, testing against HDF is aimed at evaluating the selective cytotoxicities of hits.

LSD-1 = target: T1, LSD-1 (Homo sapiens, UniProt O60341); assay: fluorometric LSD-1 enzymatic assay (Cayman kit); type: biochemical; conditions: for IC50: read-out: IC50 LSD-1 enzyme
T1 construct: purchased Cayman Chemical-USA 700120
Description: Briefly, the assay is based on a multistep enzymatic reaction in which LSD-1 first produces H2O2 during the demethylation of lysine 4 on a peptide corresponding to the first 21 amino acids of the N-terminal tail of histone H3. In the presence of horseradish peroxidase (HRP), H2O2 reacts with ADHP (10-acetyl-3,7-dihydroxyphenoxazine) to produce the highly fluorescent compound resorufin. Resorufin fluorescence was analysed with an excitation wavelength 530–540 nm and an emission wavelength of 585–595 nm. […] The procedure proceeds through the following steps: (i) prepare 100% initial activity wells by adding 120 μl of assay buffer, 20 μl of LSD1, 20 μl of HRP, 10 μl of ADHP, and 10 μl of DMSO to three wells. […] (iv) Initiate the reactions by adding 20 μl of substrate peptide to all the wells being used, except the background wells. (v) Cover the plate with the plate cover and incubate for 30 minutes at 37 °C. (vi) Remove the plate cover and read the plate using an excitation wavelength of 530–540 nm and an emission wavelength of 585–595 nm. (vii) Determine the average fluorescence of each sample. (viii) Subtract the fluorescence of the background wells from the fluorescence of the 100% initial activity and the inhibitor wells. (ix) Determine the percent inhibition for each sample. To do this, subtract each inhibitor sample value from the 100% initial activity sample value.

[2] = system: glioblastoma U-87 MG cells; assay: MTT cytotoxicity against U-87 MG cells; type: cell-based
Description: as §1, §2

[3] = system: normal human dermal fibroblasts (HDF); assay: cytotoxicity against normal human dermal fibroblasts; type: cell-based; conditions: for SI: selectivity index in comparison with SH-SY5Y cells, HDF: HDF vs SH-SY5Y
Text: However, testing against HDF is aimed at evaluating the selective cytotoxicities of hits.

[4] = system: neuroblastoma SH-SY5Y cells; assay: MTT cell viability assay on SH-SY5Y cells; type: cell-based; conditions: for IC50: read-out: In vitro IC50; for Experimental % inhibition Without verapamil At 50 μM: 72 h
Description: as §1
As SH-SY5Y cells highly express ATP binding cassette subfamily B member 1 (ABCB1, MDR1, normalized expression, NX: 36.8%),[100] cell resistance were reversed using verapamil (10 μM), which was added with each hit, and incubated with cells for 72 hours for subsequent MTT viability assay.[101,102] Finally, MTT cell proliferation assay results were analysed using GraphPad Prism 8.0 (GraphPad Software, Inc). […] Measurements were repeated in triplicates.
• MTT Cell Proliferation Assay
Inhibitory effect of the hits on SH-SY5Y cells were evaluated by a colorimetric method of CellTiter Non-Radioactive Cell Proliferation Assay Kit® (Promega, USA), based on the reduction of a yellow tetrazole, 3-(4,5-Dimethylthiazol-2-yl)-2, 5-diphenyl tetrazolium bromide (MTT), to a purple formazan, a process that take place in the mitochondria of viable cells.
Briefly, the cells were seeded onto 96-well plates (Greiner, Germany) at a concentration of 2×10^4 cells/well and incubated for 24 hours through which cells are attached to the walls of the wells.
Subsequently, hits under concern were screened on 50 µM and 10 µM concentrations (100 μL/ well). Each concentration was added in triplicates, and every plate contained a control of cells in plain medium. The cells were then incubated at 37 °C for 72 hours. After incubation, the media were aspirated from the wells and replaced by fresh media (100 μL/ well), and 15 µl MTT dye solution. The plates were incubated at 37 °C for four hours, and then 50 μL of solublization/stop solution was added to each well. Optical density (OD) at 560 nm wavelength was recorded one hour later using a 96-well plate reader (GloMax, Promega).
• Reversal of SH-SY5Y resistance by verapamil
As SH-SY5Y cells are highly expressing ATP binding cassette subfamily B member 1 (ABCB1, MDR1) (Normalized expression, NX: 36.8%) 100, cell resistance were reversed using 10 µM concentration of verapamil added with each hit and incubated with cells for 72 hours for subsequent MTT viability assay 101,102.

[5] = in presence of verapamil (10 μM)

Compound	% Inhibition at 10 μM Panc-1 [1]	% Inhibition at 10 μM LSD-1 enzyme (LSD-1)	% Inhibition at 10 μM U-87 MG [2]	% Inhibition at 10 μM HDF [3]	IC50 [1]	HS (hill Slope) LSD-1 enzyme (LSD-1)	IC50 (LSD-1)	IC50 [2]	Experimental % inhibition Without verapamil At 50 μM ([4]; without verapamil)	other results
O=C(NCCCCCCCCCCNC(=O)Nc1cccc(C2=NCCN2)c1)Nc1cccc(C2=NCCN2)c1 [Cpd 285]	3%	18%	0%	31%	–	–	–	–	–	–
CCCCOCCCNCC(=O)Nc1ccc(S(=O)(=O)c2ccc(NC(=O)CNCCCOCCCC)cc2)cc1 [Cpd 287]	39%	96%	15%	7%	–	–	–	–	–	–
N=C(N)c1ccc(OCCCCCCOc2ccc(C(=N)N)cc2)cc1 [Cpd 288]	41%	18%	47%	35%	–	–	–	–	–	–
COc1cccc2c1C(=O)c1c(O)c3c(c(O)c1C2=O)CC(O)(C(C)=NNC(=O)CO)CC3OC1CC(N)C(O)C(C)O1 (stereo not drawn) [Cpd 298]	93%	78%	81%	69%	740 nM	0.36	210 nM	920 nM	–	SI: selectivity index in comparison with SH-SY5Y cells, Panc-1 [1]: 24.6; SI: selectivity index in comparison with SH-SY5Y cells, U-87 MG ([2]; U-87 MG vs SH-SY5Y): 30.6; IC50 [3]: 3060 nM; SI: selectivity index in comparison with SH-SY5Y cells, HDF [3]: 102
N=C(N)c1ccc(OCCCCCCOc2ccc(C(=N)N)cc2I)cc1 [Cpd 304]	73%	88%	64%	68%	3850 nM	0.70	610 nM	7270 nM	–	SI: selectivity index in comparison with SH-SY5Y cells, Panc-1 [1]: 2.6; IC50 [3]: 5730 nM; SI: selectivity index in comparison with SH-SY5Y cells, HDF [3]: 15.48
COc1cccc2c1C(=O)c1c(O)c3c(c(O)c1C2=O)C[C@@](O)(C(=O)CO)C[C@@H]3O[C@H]1C[C@H](N)[C@H](O)[C@H](C)O1 [Doxorubicin, reference compound]	–	–	–	–	–	–	–	–	–	IC50 ([1]; Homo sapiens, PANC-1): 1380 nM; inhibition at 10 µM ([1]; Homo sapiens, PANC-1): 76%; inhibition at 10 µM ([4]; Homo sapiens, read-out: Experimental % inhibition At 10 μM (column 6, head as shown: With verapamil), 72 h, 10 μM): 91%; IC50 ([4]; Homo sapiens, without verapamil): 600 nM; IC50 ([2]; Homo sapiens, U-87 MG): 1370 nM; inhibition at 10 µM ([2]; Homo sapiens, U-87 MG): 86%
CCCCOCCCNCC(=O)Nc1ccc(S(=O)(=O)c2ccc(NC(=O)CNCCCOCCCC)cc2)cc1 [Hit 287]	–	–	–	–	–	0.75	210 nM	–	87.63%	IC50 [4, 5]: 5460 ± 640 nM
COc1cccc2c1C(=O)c1c(O)c3c(c(O)c1C2=O)CC(O)(C(C)=NNC(=O)CO)CC3OC1CC(N)C(O)C(C)O1 (stereo not drawn) [Hit 298]	–	–	–	–	740 ± 90 nM	0.36	210 ± 560 nM	930 ± 120 nM	86.99%	IC50 ([4]; without verapamil): 30 nM
N=C(N)c1ccc(OCCCCCCOc2ccc(C(=N)N)cc2I)cc1 [Hit 304]	–	–	–	–	3850 ± 270 nM	0.68	610 ± 120 nM	7270 ± 670 nM	88.87%	IC50 [4, 5]: 370 ± 20 nM

Reference: publication PMC9751883, “Discovery of new potent lysine specific histone demythelase-1 inhibitors (LSD-1) using structure based and ligand based molecular modelling and machine learning” (RSC Advances, 2022)
